Source: patent publication EP4703364A1, “QUINOLONE ANALOG AND USE THEREOF” (Horizon Omics Biotech Limited, priority 2023, dated 2024)

system: DLD1 BRCA2^-/-; test: Cell activity assay (CellTiterGlo), BRCA2 gene knockout DLD1 cancer cells; assay type: cell-based; settings: Homo sapiens, DLD-1, 144 h, read-out: IC50(nM) DLD1 BRCA2^-/-
Protocol: (§1) • (1) Compound Treatment • a) Preparation of Stock Solutions of Compounds Test compounds were dissolved in DMSO at a concentration of 10 mM or 5 mM, and Olaparib was dissolved in DMSO at a concentration of 10 mM. • b) Compound Storage All compounds dissolved in DMSO were stored in a desiccator at room temperature for short-term storage and transferred to a -20°C refrigerator for long-term storage. • c) Preparation of Working Concentrations of Compounds
(§2) Test compounds were serially diluted in DMSO at a 3-fold gradient to prepare 10 concentration gradients, starting from 10 µM.
(§3) Olaparib was serially diluted in DMSO at a 3-fold gradient to prepare 10 concentration gradients, starting from 10 µM.
(§4) The 384-well plate loaded with the compounds was centrifuged at 1000 rpm for 1 minute.
(§5) • a) Cells were added to the culture medium and incubated in a cell culture incubator at 37°C with 5% CO2. • b) 40 µL of BRCA1- or BRCA2-deficient cells were added to a 384-well plate and incubated overnight at 37°C with 5% CO2. • c) The test compounds were prepared at different concentration gradients on the master plate, and 80 nL of the test compounds and Olaparib were taken from the master plate and added to the 384-well plate containing cells, and incubated at 37°C with 5% CO2 for 6 days. • d) CellTiterGlo (30 µL per well) was added to the 384-well plate, and after incubation at room temperature in the dark for 30 minutes, measurement was performed using an Envision plate reader.
(§6) • a) GraphPad Prism software was used to calculate the ICso and plot the activity curves as a function of concentration. • b) The inhibition of cell activity by the compounds was calculated using the following formula: % Inhibition = [1−(Cmpd−Blank)/(DMSO−Blank)]*100 [formula]

SMILES | IC50
CN1CCCN(c2ccc3c(=O)c(C(=O)NCc4ncc(C(F)(F)F)cn4)c4sc5ccccc5n4c3n2)CC1 [Compound H-4] | 36 nM
[2H]C([2H])([2H])N1C([2H])([2H])C([2H])([2H])CN(c2ccc3c(=O)c(C(=O)NCc4ncc(F)cn4)c4sc5ccccc5n4c3n2)C([2H])([2H])C1([2H])[2H] [Compound H-8] | 15.9 nM
CN1CCCN(c2ccc3c(=O)c(C(=O)NCc4nccc(C#N)n4)c4sc5ccccc5n4c3n2)CC1 [Compound H-12] | 13.7 nM
CN1CCCN(c2ccc3c(=O)c(C(=O)NCc4ncc(F)cn4)c4sc5ccccc5n4c3n2)CC1 [Compound H-1] | 37.7 nM
COc1cnc(CNC(=O)c2c(=O)c3ccc(N4CCCN(C)CC4)nc3n3c2sc2ccccc23)nc1 [Compound H-16] | 27.5 nM
[2H]C([2H])([2H])N1C([2H])([2H])C([2H])([2H])CN(c2ccc3c(=O)c(C(=O)NCc4ncccn4)c4sc5ccccc5n4c3n2)C([2H])([2H])C1([2H])[2H] [Compound H-7] | 16.2 nM
O=C(c1cc(Cc2n[nH]c(=O)c3ccccc23)ccc1F)N1CCN(C(=O)C2CC2)CC1 [Olaparib, reference compound] | 490 nM
Cc1cnc(CNC(=O)c2c(=O)c3ccc(N4CCCN(C)CC4)nc3n3c2sc2ccccc23)cn1 [CX-5461] | 43.9 nM
CN1CCCN(c2ccc3c(=O)c(C(=O)NCc4ncc(Cl)cn4)c4sc5ccccc5n4c3n2)CC1 [Compound H-2] | 33.8 nM
CCc1ccnc(CNC(=O)c2c(=O)c3ccc(N4CCCN(C)CC4)nc3n3c2sc2ccccc23)n1 [Compound H-22] | 36.7 nM
CNc1cnc(CNC(=O)c2c(=O)c3ccc(N4CCCN(C)CC4)nc3n3c2sc2ccccc23)nc1 [Compound H-19] | 30.3 nM
[2H]C1([2H])CN(c2ccc3c(=O)c(C(=O)NCc4ncc(F)cn4)c4sc5ccccc5n4c3n2)C([2H])([2H])C([2H])([2H])N(C)C1([2H])[2H] [Compound H-6] | 23.8 nM
CN1CCCN(c2ccc3c(=O)c(C(=O)NCc4ncc(C#N)cn4)c4sc5ccccc5n4c3n2)CC1 [Compound H-11] | 16.2 nM

system: UWB1.289 Cells; test: Cell activity assay (CellTiterGlo), BRCA1 gene-deficient ovarian cancer cells UWB1.289; assay type: cell-based; settings: UWB1289, 144 h, BRCA1 gene-deficient ovarian cancer cells UWB1.289, 6 days incubation
Protocol: as §1, §2, §3, §4, §5, §6

SMILES | IC50
O=C(c1cc(Cc2n[nH]c(=O)c3ccccc23)ccc1F)N1CCN(C(=O)C2CC2)CC1 [Olaparib, reference compound] | 716 nM
Cc1cnc(CNC(=O)c2c(=O)c3ccc(N4CCCN(C)CC4)nc3n3c2sc2ccccc23)cn1 [CX-5461] | 91.6 nM

system: not listed separately; test: In-vivo pharmacokinetic study in mice (bioavailability testing); settings: mouse, plasma; oral (PO) and intravenous (IV) routes, female Balb/c nude mice
Protocol: Test compounds were administered to mice via oral (PO) and intravenous (IV) routes. The test compounds were dissolved at room temperature. The mice used in the study were Balb/c nude mice, all female, aged 6-8 weeks, with a body weight of 20-30 grams. Before administration, the mice had free access to food and water. Blood samples (approximately 0.03 mL per sample) were collected from the vein at appropriate time points. The samples were placed in tubes containing an anticoagulant and stored on ice until centrifugation. Blood samples were collected at 0.083, 0.25, 0.5, 1, 2, 4, 8, and 24 hours after intravenous administration, and at 0.25, 0.5, 1, 2, 4, 8, and 24 hours after oral administration. The blood samples were centrifuged at approximately 4000 rpm at 2-8 °C for 5 minutes. Plasma samples were then collected and stored frozen at approximately -80 °C until analysis. The LC-MS/MS system was used for bioanalytical work. Table 4. Bioavailability Testing

SMILES | bioavailability
CCc1cnc(CNC(=O)c2c(=O)c3ccc(N4CCCN(C)CC4)nc3n3c2sc2ccccc23)nc1 [Compound H-21] | 66.8%
CN1CCCN(c2ccc3c(=O)c(C(=O)NCc4nccc(C5CC5)n4)c4sc5ccccc5n4c3n2)CC1 [Compound H-28] | 41.6%
CN1CCCN(c2ccc3c(=O)c(C(=O)NCc4nccc(C#N)n4)c4sc5ccccc5n4c3n2)CC1 [Compound H-12] | 49.1%
CN1CCCN(c2ccc3c(=O)c(C(=O)NCc4ncc(F)cn4)c4sc5ccccc5n4c3n2)CC1 [Compound H-1] | 60.7%
COc1ccnc(CNC(=O)c2c(=O)c3ccc(N4CCCN(C)CC4)nc3n3c2sc2ccccc23)n1 [Compound H-17] | 74.6%
Cc1cnc(CNC(=O)c2c(=O)c3ccc(N4CCCN(C)CC4)nc3n3c2sc2ccccc23)cn1 [CX-5461] | 33.8%
CN1CCCN(c2ccc3c(=O)c(C(=O)NCc4ncc(Cl)cn4)c4sc5ccccc5n4c3n2)CC1 [Compound H-2] | 47.2%
CN1CCCN(c2ccc3c(=O)c(C(=O)NCc4ncc(C5CC5)cn4)c4sc5ccccc5n4c3n2)CC1 [Compound H-27] | 59.2%
CCc1ccnc(CNC(=O)c2c(=O)c3ccc(N4CCCN(C)CC4)nc3n3c2sc2ccccc23)n1 [Compound H-22] | 40.6%

molecular target: hERG (Homo sapiens, UniProt Q12809); test: hERG cardiotoxicity assay (patch clamp, hERG stably expressed HEK 293 cell line); assay type: cell-based; settings: hERG current, HEK 293 cells, 5 doses
Protocol: Assay Method: 1) The hERG stably expressed HEK 293 cell line (Cat# K1236) was purchased from Invitrogen. Cells were cultured in a medium consisting of 85% DMEM, 10% FBS, 0.1 mM NEAA, 25 mM HEPES, 100 U/mL penicillin-streptomycin, 5 µg/mL Blasticidin, and 400 µg/mL Geneticin. Cells were passaged approximately three times a week using TrypLE™ Express and maintained at ~40% to ~80% confluency. Before assay, cells were placed on coverslips with 5×10^5 cells per 6-cm cell culture dish and induced with 1 µg/mL doxycycline for 48 hours. 2) The coverslip was removed from the cell culture dish and placed on the microscope stage. A suitable cell was located using a 10× objective. The tip of the electrode was located under the microscope using the 10× objective, and the focus was adjusted to the plane of the cell. Once the tip was in focus, the coarse control of the manipulator was used to advance the electrode downward toward the cell while moving the objective to keep the tip in focus. When directly above the cell, the objective was switched to 40× objective, and the fine control of the manipulator was used to approach the cell surface in small steps. 3) A blank control was first performed to establish a baseline. […] In the presence of the test compounds, the hERG current was recorded for approximately 5 minutes to reach a steady state, followed by capturing 5 scans. For dose-response testing, 5 doses of the test compounds were cumulatively applied to the cells from low to high concentrations. The positive control, dofetilide at a concentration of 150 nM, was applied to each cell, and the hERG current was measured in the test compounds at the highest concentration as a negative control to normalize the percentage of inhibition. To ensure good performance of the cultured cells and operations, cells from the same batch were also tested with 5 doses of dofetilide. Table 5. hERG Toxicity Assay Results

hERG, sequence (Q12809 whole entry): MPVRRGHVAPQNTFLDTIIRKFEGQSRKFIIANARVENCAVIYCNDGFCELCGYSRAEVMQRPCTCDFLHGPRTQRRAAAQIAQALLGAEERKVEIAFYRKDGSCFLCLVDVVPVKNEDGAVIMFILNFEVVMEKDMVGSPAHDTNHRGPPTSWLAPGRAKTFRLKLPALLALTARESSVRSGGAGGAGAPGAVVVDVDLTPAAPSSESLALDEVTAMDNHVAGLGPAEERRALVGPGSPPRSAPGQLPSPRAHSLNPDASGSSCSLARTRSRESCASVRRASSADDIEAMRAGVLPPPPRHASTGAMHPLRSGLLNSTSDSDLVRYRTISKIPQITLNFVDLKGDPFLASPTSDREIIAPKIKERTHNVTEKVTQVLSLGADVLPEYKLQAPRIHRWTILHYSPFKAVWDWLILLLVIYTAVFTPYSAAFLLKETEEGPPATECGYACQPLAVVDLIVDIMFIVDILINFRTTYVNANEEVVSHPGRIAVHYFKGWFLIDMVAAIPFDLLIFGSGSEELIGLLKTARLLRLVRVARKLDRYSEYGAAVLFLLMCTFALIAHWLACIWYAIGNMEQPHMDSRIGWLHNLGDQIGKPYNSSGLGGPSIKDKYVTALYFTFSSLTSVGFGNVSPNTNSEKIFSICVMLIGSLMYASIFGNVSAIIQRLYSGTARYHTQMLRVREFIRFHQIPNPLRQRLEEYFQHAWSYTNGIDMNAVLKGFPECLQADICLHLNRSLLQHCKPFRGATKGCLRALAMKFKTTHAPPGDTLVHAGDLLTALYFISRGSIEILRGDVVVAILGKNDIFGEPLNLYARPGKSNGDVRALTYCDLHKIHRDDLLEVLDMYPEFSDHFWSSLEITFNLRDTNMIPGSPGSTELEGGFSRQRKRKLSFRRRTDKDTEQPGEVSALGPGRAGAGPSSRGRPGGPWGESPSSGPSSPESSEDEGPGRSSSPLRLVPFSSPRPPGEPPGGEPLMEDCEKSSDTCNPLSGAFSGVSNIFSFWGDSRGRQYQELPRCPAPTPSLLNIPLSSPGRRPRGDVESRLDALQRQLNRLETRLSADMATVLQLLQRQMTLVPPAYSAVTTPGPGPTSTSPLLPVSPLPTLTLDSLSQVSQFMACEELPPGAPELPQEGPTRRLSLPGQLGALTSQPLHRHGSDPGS

SMILES | IC50
CNC(=O)c1cnc(CNC(=O)c2c(=O)c3ccc(N4CCCN(C)CC4)nc3n3c2sc2ccccc23)nc1 [Compound H-13] | > 30000 nM
Cc1cnc(CNC(=O)c2c(=O)c3ccc(N4CCCN(C)CC4)nc3n3c2sc2ccccc23)cn1 [CX-5461] | 5100 nM
CSc1cnc(CNC(=O)c2c(=O)c3ccc(N4CCCN(C)CC4)nc3n3c2sc2ccccc23)nc1 [Compound H-18] | 10700 nM
CN1CCCN(c2ccc3c(=O)c(C(=O)NCc4ncc(C(=O)N(C)C)cn4)c4sc5ccccc5n4c3n2)CC1 [Compound H-15] | > 30000 nM

system: not listed separately; test: Toxicity assay in mice, repeated dosing at 50 mg/kg, body weight; assay type: in vivo; settings: 50 mg/kg PO once every 3 days, 21 days, female mice
Protocol: Test compounds were administered to mice via the oral (PO) route. The test compounds were dissolved at room temperature. The mice used in the study were all female, and aged 6-8 weeks. Before administration, the mice had free access to food and water. Vehicle control: 50 mM NaH2PO4, pH 4.0, administered once every 3 days. CX-5461 and Compound H-31 were administered once every 3 days at a dose of 50 mg/kg. If the body weight of the mice decreased by more than 15%, administration was suspended until the body weight recovered, after which administration was resumed.

SMILES | overall condition / clinical symptoms
Cc1cnc(CNC(=O)c2c(=O)c3ccc(N4CCCN(C)CC4)nc3n3c2sc2ccccc23)cn1 [CX-5461] | poor overall condition, sluggish movement, and pallor in the tails and toes due to blood loss

same assay, conditions: 50 mg/kg PO once every 3 days, after 21 days of repeated administration, female mice

SMILES | effect on mouse body weight
Cc1cnc(CNC(=O)c2c(=O)c3ccc(N4CCCN(C)CC4)nc3n3c2sc2ccccc23)cn1 [CX-5461] | significantly reduced the body weight of the mice

same assay, conditions: 50 mg/kg PO once every 3 days; administration halted for the entire group

SMILES | average body weight loss
Cc1cnc(CNC(=O)c2c(=O)c3ccc(N4CCCN(C)CC4)nc3n3c2sc2ccccc23)cn1 [CX-5461] | exceeded 10%

system: not listed separately; test: Toxicity assay in mice, repeated dosing at 55 mg/kg, body weight; assay type: in vivo; settings: 55 mg/kg PO once every 3 days, 4 repeated administrations, female Balb/c mice
Protocol: Test compounds were administered to mice via the oral (PO) route. The test compounds were dissolved at room temperature. The mice (Balb/c) used in the study were all female, and aged 6-8 weeks. Before administration, the mice had free access to food and water.
Vehicle control: 50 mM NaH2PO4, pH 4.0. CX-5461 and the H series compounds were administered once every 3 days at a dose of 55 mg/kg, with four doses administered in total.

SMILES | deaths
CN1CCCN(c2ccc3c(=O)c(C(=O)NCc4ncc(C(F)(F)F)cn4)c4sc5ccccc5n4c3n2)CC1 [Compound H-4] | no deaths observed
COc1ccnc(CNC(=O)c2c(=O)c3ccc(N4CCCN(C)CC4)nc3n3c2sc2ccccc23)n1 [Compound H-17] | no deaths observed

system: MDA-MB-436 cancer cells; test: Inhibition of human-derived cancer in mouse model (MDA-MB-436 subcutaneous tumors); assay type: in vivo, NOD SCID mice; settings: MDA-MB-436 model, oral, 100 mg/kg once a day for 28 days
Protocol: The anti-cancer efficacy of the compounds of the present application was evaluated in NOD SCID mice. Female mice aged 6-8 weeks were subcutaneously inoculated with MDA-MB-436 cancer cells to form tumors. When the tumors reached a size of 100-150 mm^3, the mice were randomly divided into groups, with 6 mice in each group. The administration route was oral administration. Olaparib was administered once a day at a dose of 100 mg/kg for a total of 28 days. The vehicle control group and Compound H-31 were administered once every 3 days at a dose of 25 mg/kg.

SMILES | cancer inhibition rate
O=C(c1cc(Cc2n[nH]c(=O)c3ccccc23)ccc1F)N1CCN(C(=O)C2CC2)CC1 [Olaparib, reference compound] | 63.4%

system: human herpesvirus HCMV-AD169; test: Antiviral cell-protective activity, GFP-labeled HCMV-AD169 in MRC5 cells; assay type: cell-based; settings: Human betaherpesvirus 5, 168 h, HCMV-AD169 GFP fluorescence, 7 days, read-out: Virus inhibition EC50
Protocol: MRC5 cells were seeded in microplates at a specific density and cultured overnight in an incubator at 37 °C with 5% CO2. Serially diluted compounds and GFP-labeled human herpesvirus HCMV-AD169 were added to the microplates. A cell control group (cells without compound treatment or viral infection) and a virus control group (cells infected with the virus but without compound treatment) were set up. The test compounds and control compounds were tested at 8 concentrations, with 3-fold serial dilutions and triplicate wells for each concentration. Meanwhile, the cytotoxicity of the test compounds and control compounds on cells was determined. The cells were cultured in an incubator at 37 °C with 5% CO2 for 7 days. Acumen Cellista was used to detect the GFP fluorescence intensity inside the cells in each well. Cell viability detection reagents CCK-8 or Cell Titer Glo were used to measure cell viability, and the original data were used for calculating the cytotoxicity of the test compounds. GraphPad Prism software was applied to analyze the dose-response curves of the test compounds, calculate the virus inhibition EC50 and cytotoxicity CC50 values, and further calculate the therapeutic index (SI), using the formula SI = CC50/EC50, which was used to evaluate the therapeutic potential of the drug; a higher SI value indicates stronger efficacy of the drug against viruses.

SMILES | EC50
Nc1nc(O)c2ncn(COC(CO)CO)c2n1 [Ganciclovir, reference compound] | 1600 nM

same assay, conditions: therapeutic index, HCMV-AD169

SMILES | SI (CC50/EC50)
Nc1nc(O)c2ncn(COC(CO)CO)c2n1 [Ganciclovir, reference compound] | >60.7
